The series can be described thus: solvent given as SMILES.

Emission maximum data for 33 compounds are collected here from the Deep4Chem optical property database.

Take `CCOC(=O)COc1ccc(/C=C/c2c(CC)c(C)c3n2[B-](F)(F)[N+]2=C(c4[nH]c(C)c(CC)c4C)c4ccccc4C2=C3C)cc1`: the emission maximum is, setting by setting: (in C1CCOC1) 709 nm; (in CC#N) 707 nm; (in CCCCCC) 698 nm; (in CO) 711 nm; (in Cc1ccccc1) 709 nm; (in ClCCl) 714 nm.

For `COc1ccc(/C=C/c2nc(N3CCOCC3)c3c([n+]2[O-])CCCC3)cc1`, under “in ClCCl”, the emission maximum is recorded as 533 nm.

Turning to `CCC1=C(C)C2=C(C)c3c(I)c(I)cn3[B-](F)(F)[N+]2=C1C`, the emission maximum is, setting by setting: (in C1CCCCC1) 538.5 nm; (in CC(C)=O) 533 nm; (in CCO) 534 nm; (in CCOC(C)=O) 533 nm; (in CO) 533.5 nm; (in OCC(F)(F)F) 530.5 nm.

Consider `Cc1ccc(-c2cc3ccccc3oc2=O)cc1`, for which the emission maximum is recorded as 410 nm (in C1CCOC1), 425 nm (in CCCCCC), 408 nm (in CCO) and 409 nm (in CS(C)=O).

`c1ccc2c(c1)OP1(=NP(Oc3ccc4ccc5cccc6ccc3c4c56)(Oc3ccc4ccc5cccc6ccc3c4c56)=NP(Oc3ccc4ccc5cccc6ccc3c4c56)(Oc3ccc4ccc5cccc6ccc3c4c56)=N1)Oc1ccccc1-2` yielded an emission maximum (in ClCCl) of 457 nm.

Turning to `CCN1C(=CC2=C([O-])C(=Cc3[se]c4ccccc4[n+]3CC)C2=O)[Se]c2ccccc21`, the emission maximum by setting is: (in CO) 688 nm; (in ClC(Cl)Cl) 714 nm.

Where the note is “in CO”, `COc1ccc(-c2nc(-c3ccc(OC)cc3)c(-c3ccc(OC)cc3)[nH]2)cc1` had an emission maximum of 389 nm.

`CCC(C)(C)c1ccc(-c2ccc(-c3ccc(C(C)(C)CC)cc3)cc2)cc1`: the emission maximum (in C1COCCO1) is given as 354 nm.

For the compound `C1=Cc2ccccc2Cc2ccccc21`, the emission maximum came out at 383 nm (in CC#N) and 380 nm (in CO).

Turning to `COc1ccc(C2=C(c3ccc(OC)cc3)c3cccc4c5c(cc(c34)O2)=NC(C#N)C(C#N)N=5)cc1` (stereo not given), the emission maximum (in ClCCl) was 632 nm.

The compound `CCCCn1c2ccc(C#N)cc2c2cc(C#N)cc(-c3ccc(N(c4ccccc4)c4ccccc4)cc3)c21` showed an emission maximum (in C1CCCCC1) of 407 nm; an emission maximum (in C1CCOC1) of 440 nm; an emission maximum (in CC#N) of 474 nm; an emission maximum (in CCCCOCCCC) of 412 nm; an emission maximum (in CCN(CC)CC) of 410.48 nm; an emission maximum (in CCOC(C)=O) of 438 nm. Also, the emission maximum is recorded as 424 nm (in CCOCC); 472 nm (in CN(C)C=O); 415 nm (in Cc1ccccc1); 420 nm (in ClC=C(Cl)Cl); 447 nm (in ClCCl).

Turning to `CN(C)c1ccc(C(=O)Nc2ccc(Cl)cc2)cc1`, the emission maximum amounted to 435 nm (in C1CCCCC1), 490 nm (in C1CCOC1), 498 nm (in CC#N) and 481 nm (in CCOCC).

As to `Cc1cc(-n2c3ccccc3c3ccccc32)c(-n2c3ccccc3c3ccccc32)cc1C#N`, the emission maximum by setting is: (in c1cc(-c2cccc(-n3c4ccccc4c4ccccc43)c2)cc(-n2c3ccccc3c3ccccc32)c1) 485 nm; (in c1ccc2c(c1)c1ccccc1n2-c1ccc2sc3ccc(-n4c5ccccc5c5ccccc54)cc3c2c1) 489 nm; (in c1ccc2c(c1)c1ccccc1n2-c1ccc2sc3ccc(-n4c5ccccc5c5cccnc54)cc3c2c1) 495 nm; (in c1ccc2c(c1)c1cccnc1n2-c1ccc2sc3ccc(-n4c5ccccc5c5cccnc54)cc3c2c1) 498 nm.

`Cc1ccc2nc3c4c(c5ccccc5c3nc2c1)OC(=O)CC4c1ccc(C(F)(F)F)cc1` (stereo not given) displayed an emission maximum (in ClC(Cl)Cl) of 430 nm.

As to `COCCOCCOCCOCC(COCCOCCOCCOC)Oc1cc(/C=C/c2ccc(/C=C(\C#N)c3ccncc3)cc2)c(OC(COCCOCCOCCOC)COCCOCCOCCOC)cc1/C=C/c1ccc(/C=C(\C#N)c2ccncc2)cc1`, the emission maximum (in ClCCl) is 574 nm.

The compound `C[Si]1(c2ccccc2)C(c2ccc3c4ccccc4n(-c4ccccc4)c3c2)=C(c2ccccc2)C(c2ccccc2)=C1c1ccc2c3ccccc3n(-c3ccccc3)c2c1` yielded an emission maximum (in C1CCOC1) of 525 nm.

Regarding `CN(C)c1ccc(C#Cc2ccccc2)cc1`, the emission maximum runs as follows: (in C1CCCCC1) 344.99 nm; (in C1CCOC1) 386 nm; (in C1COCCO1) 372.49 nm; (in CC1CCCO1) 377.5 nm; (in CC#N) 415.51 nm; (in CC(C)=O) 410.49 nm. Also, the emission maximum reads like this: (in CC(C)CC(C)(C)C) 342.99 nm; (in CC(C)O) 365 nm; (in CCCCCCCCCCCCCCCC) 346.98 nm; (in CCCCCCCCCCCCCCCCCl) 360.49 nm; (in CCOC(C)=O) 382.5 nm; (in CCOCC) 368.5 nm. Besides, the emission maximum is listed as 418.5 nm (in CN(C)C=O), 372 nm (in CO), 423.5 nm (in CS(C)=O) and 366.01 nm (in Cc1ccccc1).

As for `CN(C)c1ccc2c(c1)C(=O)NC2=O`, the emission maximum reads like this: (in C1CCOC1) 459 nm; (in C1COCCO1) 457 nm; (in CC#N) 490 nm; (in CC(C)(C)O) 516 nm; (in CC(C)=O) 483 nm; (in CC(C)O) 523 nm. The emission maximum reads like this: (in CCOCC) 440 nm; (in CO) 534 nm; (in O) 562 nm.

For the compound `COC(=O)c1[nH]c(-c2ccccc2)c2nnc3ccc(OC)cc3c12`, the emission maximum (in ClCCl) stood at 475 nm.

For `c1cc(-c2c3ccccc3c(-c3ccc4ccccc4c3)c3ccccc23)cc(-n2c3ccccc3c3ccccc32)c1`, the emission maximum (in ClCCl) worked out at 419 nm.

`CCC1=C(C)C2=C(C)c3cc(I)c(I)n3[B-](F)(F)[N+]2=C1C` registered an emission maximum (in C1CCCCC1) of 546 nm; an emission maximum (in CC(C)=O) of 544.5 nm; an emission maximum (in CCO) of 548 nm; an emission maximum (in CCOC(C)=O) of 544.5 nm; an emission maximum (in CO) of 546 nm; an emission maximum (in OCC(F)(F)F) of 542.5 nm.

Turning to `CCNc1ccc2c(C(F)(F)F)cc(=O)oc2c1`, the emission maximum by setting is: (in C1CCC2CCCCC2C1) 420 nm; (in C1CCCCC1) 417 nm; (in CC1CCCCC1) 417 nm; (in CC#N) 485 nm; (in CC(C)=O) 485 nm; (in CC(C)O) 490 nm. The same compound displayed an emission maximum (in CCC(C)CC) of 415 nm; an emission maximum (in CCCC(C)C) of 415 nm; an emission maximum (in CCCCCC) of 417 nm; an emission maximum (in CCCCCCO) of 490 nm; an emission maximum (in CCCCO) of 493 nm; an emission maximum (in CCO) of 500 nm. Moreover, the emission maximum reads like this: (in CCOC(C)=O) 478 nm; (in CO) 500 nm.

Compound `C[n+]1ccc(/C=C/c2ccc(N(c3ccccc3)c3ccc(/C=C/c4cc[n+](C)cc4)cc3)cc2)cc1` returned an emission maximum (in ClCCl) of 502 nm, an emission maximum (in O) of 656 nm and an emission maximum (in OCC(O)CO) of 649 nm.

For `CC1=C(Cl)C(/C=C/c2ccc3c(c2)c2ccccc2n3Cc2cn(CCC[P+](c3ccccc3)(c3ccccc3)c3ccccc3)nn2)=[N+]2C1=C(c1ccc(I)cc1)c1c(C)c(Cl)c(C)n1[B-]2(F)F`, the emission maximum (in CCO) stood at 650 nm.

Turning to `O=S(=O)(c1cccc(N2c3ccccc3Oc3ccccc32)c1)c1cccc(N2c3ccccc3Oc3ccccc32)c1`, the emission maximum worked out at 596 nm (in C1CCOC1); 542.52 nm (in CCCCC(CC)n1c2ccc(-n3c4ccccc4c4ccccc43)cc2c2cc(-n3c4ccccc4c4ccccc43)ccc21); 547 nm (in Cc1ccccc1); 572 nm (in ClC(Cl)Cl); 546.26 nm (in c1cc(-n2c3ccccc3c3ccccc32)cc(-n2c3ccccc3c3ccccc32)c1).

Consider `O=C1c2cccc3c(NCc4ccccn4)c4ccccc4c(c23)C(=O)N1Cc1ccccn1`, for which the emission maximum is, setting by setting: (in C1CCOC1) 609 nm; (in CCCCCC) 594 nm; (in CCO) 615 nm; (in Cc1ccccc1) 606 nm; (in ClCCl) 611 nm.

As for `O=C1O[B-]2(OC1=O)OC(c1ccc3ccccc3c1)=CC(c1ccc3ccccc3c1)=[O+]2`, the emission maximum stood at 550 nm (in CC#N) and 451 nm (in ClC(Cl)(Cl)Cl).

Take `CC(C)(C)c1ccc2c(c1)c1cc(C(C)(C)C)ccc1n2-c1ccc(-c2ccc3c(c2)C(=O)c2ccc(-c4ccc(-n5c6ccc(C(C)(C)C)cc6c6cc(C(C)(C)C)ccc65)cc4)cc2C3=O)cc1`: the emission maximum (in Cc1ccccc1) is on record as 558 nm and the emission maximum (in c1ccc2c(c1)c1ccccc1n2-c1ccc(-c2ccc(-n3c4ccccc4c4ccccc43)cc2)cc1) worked out at 550 nm.

`CN(C)c1cc2oc3cc(N(C)C)c(F)cc3c(=O)c2cc1F`: the emission maximum (in CCO) amounted to 446 nm.

As for `COc1ccc2oc(=N)c(C#N)cc2c1`, the emission maximum (in ClCCl) is listed as 468 nm.

In the case of `CC[n+]1ccc(/C=C/c2cc(OC)c(C=O)cc2OC)cc1`, the emission maximum was determined as 557 nm (in C1CCOC1); 566 nm (in CC#N); 565 nm (in CN(C)C=O); 554 nm (in Cc1ccccc1); 561 nm (in ClCCl); 558 nm (in O).

For `CCCCN(CCCC)c1ccc(C#Cc2cc(C#Cc3ccc(C(F)(F)F)cc3)c(C#Cc3ccc(N(CCCC)CCCC)cc3)cc2C#Cc2ccc(C(F)(F)F)cc2)cc1`, the emission maximum runs as follows: (in ClCCl) 546 nm; (in c1ccccc1) 506 nm.

Take `CCC(CC)COC1=CC2=C3c4cc(OCC(CC)CC)c(-c5ccccc5)n4[B-](F)(F)[n+]4nnn(c43)[B-](F)(F)[N+]2=C1c1ccccc1`: the emission maximum reads like this: (in C1CCOC1) 725 nm; (in CC#N) 721 nm; (in ClCCl) 730 nm.
